Results on 20 compounds are retold here after patent US10294229B2, “Heteroaryl substituted aminopyridine compounds” (BRISTOL-MYERS SQUIBB COMPANY, priority 2015, dated 2019).

The term pEC50 denotes the EC50 on a negative log10 scale, so that one unit is a factor of ten. As usually defined, the pIC50 is −log10 of the IC50, conventionally taken in molar units. As a reminder, the Papp is a coefficient for how fast a substance crosses the barrier.

pEC50, pIC50: −log10 of the molar value.

The test system of one series is Caco-2 cells. Nature of the series: Caco-2 Permeability Assay. Type of series: in vitro ADME. The following applies: test compound 3 μM. An outline of the steps: (§1)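 Bidirectional permeability measured over 2 h at 37° C, compound dosed at 3 μM in the donor compartment (apical for absorptive, basolateral for secretive) with plain buffer as receiver.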
(Caco-2 monolayers are a common model of the intestinal barrier.)

The test system of series [1] is Human whole blood stimulated with a TLR2 agonist (lipoteichoic acid), IL-6 levels. Nature of the series: IRAK4 Whole Blood Assay. Type of series: cell-based. The following applies: lipoteichoic acid 10 μg/mL. The method in brief: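 IL-6 was quantified by cytometric bead assay in supernatants of human blood (ACD-A) stimulated for 5 h with lipoteichoic acid at 10 μg/mL final. Compound exposure preceded stimulation for 60 min at 37 °C, 5% CO2.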

A further series addresses IRAK4 (Homo sapiens (Human), UniProt Q9NWZ3). Nature of the series: IRAK4 Inhibition Assay. Particulars: ATP 500 μM; IRAK4 0.6 nM. Type of series: biochemical. The method in brief: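 Readout: electrophoretic (LabChip) separation of fluorescent peptide substrate from phosphorylated product after EDTA quench. Reactions ran 60 min at room temperature with 0.6 nM IRAK4, 1.5 μM peptide and 500 μM ATP; inhibition referenced to no-enzyme (100%) and vehicle (0%) controls.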

The nature of series [2]: Caco-2 Permeability Assay. Type of series: in vitro ADME. The following applies: human, Caco-2, test compound 3 μM. An outline of the steps:
as §1

IRAK4, sequence (Q9NWZ3 whole entry, species assumed): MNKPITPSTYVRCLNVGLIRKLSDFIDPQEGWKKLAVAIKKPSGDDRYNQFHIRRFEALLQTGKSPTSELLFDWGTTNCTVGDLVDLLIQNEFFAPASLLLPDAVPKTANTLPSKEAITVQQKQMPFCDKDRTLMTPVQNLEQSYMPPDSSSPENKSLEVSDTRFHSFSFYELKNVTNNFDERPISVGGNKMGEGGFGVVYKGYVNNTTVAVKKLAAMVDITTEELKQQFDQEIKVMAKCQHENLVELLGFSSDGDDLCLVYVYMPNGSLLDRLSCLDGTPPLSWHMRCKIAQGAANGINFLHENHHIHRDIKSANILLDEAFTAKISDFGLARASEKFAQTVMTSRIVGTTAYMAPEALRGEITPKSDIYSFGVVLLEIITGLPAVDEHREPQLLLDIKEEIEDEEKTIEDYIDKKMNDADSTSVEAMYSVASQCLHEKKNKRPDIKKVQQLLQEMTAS

For `CC(C)Nc1cc(-n2ncc3cc(C#N)cnc32)ncc1-c1cn(CC2CC2(F)F)nn1` (single isomer, unassigned) [Example 32, 1-(5-(1-((2,2-difluorocyclopropyl)methyl)-1H-1,2,3-triazol-4-yl)-4-(isopropylamino)pyridin-2-yl)-1H-pyrazolo[3,4-b]pyridine-5-carbonitrile], the “Caco-2 Permeability” value with Caco-2 cells came to 16.2 ×10⁻⁶ cm/s. This compound showed a pEC50 in series [1] of 6.43. Further, the pIC50 on IRAK4 is 8.30.
On to `CCC(C)(O)Cn1cc(-c2cnc(-n3ncc4cc(C#N)cnc43)cc2NC(C)C)nn1` (single isomer, unassigned) [Example 93, 1-(5-(1-(2-hydroxy-2-methylbutyl)-1H-1,2,3-triazol-4-yl)-4-(isopropylamino)pyridin-2-yl)-1H-pyrazolo[3,4-b]pyridine-5-carbonitrile], for which, in the series on Caco-2 cells, the “Caco-2 Permeability” value amounted to 11.5 ×10⁻⁶ cm/s. Besides, the pEC50 in series [1] was 6.55. The pIC50 on IRAK4 is 8.00.
In the same order, the values of `CC(C)Nc1cc(-n2ncc3cc(C#N)cnc32)ncc1-c1cn([C@@H]2CCN(S(C)(=O)=O)C[C@H]2F)nn1` (single isomer, unassigned) [Example 211, 1-(5-(1-((trans)-3-fluoro-1-(methylsulfonyl)piperidin-4-yl)-1H-1,2,3-triazol-4-yl)-4-(isopropylamino)pyridin-2-yl)-1H-pyrazolo[3,4-b]pyridine-5-carbonitrile] are 3.2 ×10⁻⁶ cm/s, 6.54 and 8.70.
Regarding `CC(C)Nc1cc(-n2ncc3cc(C#N)cnc32)ncc1-c1cc(C2COCCN2)no1` (single isomer, unassigned) [Example 400, Isomer 1, 1-(4-(isopropylamino)-5-(3-(morpholin-3-yl)isoxazol-5-yl)pyridin-2-yl)-1H-pyrazolo[3,4-b]pyridine-5-carbonitrile], the “Caco-2 Permeability” value in the series on Caco-2 cells (listed as 400, Isomer 1) is 22.4 ×10⁻⁶ cm/s. Moreover, the pEC50 in series [1] (Homo sapiens) was 6.64. On IRAK4, the pIC50 was 8.52.
Turning to `CC(C)Nc1cc(-n2ncc3cc(C#N)cnc32)ncc1-c1cc(C2COCCN2)no1` (single isomer, unassigned) [Example 400, Isomer 2, 1-(4-(isopropylamino)-5-(3-(morpholin-3-yl)isoxazol-5-yl)pyridin-2-yl)-1H-pyrazolo[3,4-b]pyridine-5-carbonitrile], in the series with Caco-2 cells (listed as 400, Isomer 2), the “Caco-2 Permeability” value stood at 53 ×10⁻⁶ cm/s. The compound further gave a pEC50 in series [1] (listed as 400, Isomer 2) of 6.57. The pIC50 on IRAK4 was 8.22.
Turning to `CC(=O)N1CCCC(n2cc(-c3cnc(-n4ncc5cc(C#N)cnc54)cc3NC(C)C)nn2)C1` (centres unmarked) [Example 161, 1-(5-(1-(1-acetylpiperidin-3-yl)-1H-1,2,3-triazol-4-yl)-4-(isopropylamino)pyridin-2-yl)-1H-pyrazolo[3,4-b]pyridine-5-carbonitrile], in the series with Caco-2 cells, the “Caco-2 Permeability” value came out at 3.5 ×10⁻⁶ cm/s. This compound had a pEC50 in series [1] of 6.60. Further, the pIC50 on IRAK4 was 8.70.
In the same order, the values of `CC(C)Nc1cc(-n2ncc3cc(C#N)cnc32)ncc1-c1cn(C2CCOC2)nn1` (centres unmarked) [Example 215, 1-(4-(isopropylamino)-5-(1-(tetrahydrofuran-3-yl)-1H-1,2,3-triazol-4-yl)pyridin-2-yl)-1H-pyrazolo[3,4-b]pyridine-5-carbonitrile] are 10.4 ×10⁻⁶ cm/s, 5.88 and 8.10.
Turning to `CC(=O)N1CCC[C@@H](c2cc(-c3cnc(-n4ncc5cc(C#N)cnc54)cc3NC(C)C)on2)C1` [Example 409, (R)-1-(5-(3-(1-acetylpiperidin-3-yl)isoxazol-5-yl)-4-(isopropylamino)pyridin-2-yl)-1H-pyrazolo[3,4-b]pyridine-5-carbonitrile], the “Caco-2 Permeability” value with Caco-2 cells was 30.2 ×10⁻⁶ cm/s. Also, the pEC50 in series [1] was 6.33. Moreover, the pIC50 at IRAK4 is 8.70.
`CC(C)Nc1cc(-n2ncc3cc(C#N)cnc32)ncc1-c1cc(C2CCCCN2)no1` [Example 413, (S)-1-(4-(isopropylamino)-5-(3-(piperidin-2-yl)isoxazol-5-yl)pyridin-2-yl)-1H-pyrazolo[3,4-b]pyridine-5-carbonitrile]: in the series on Caco-2 cells, the “Caco-2 Permeability” value turned out to be 13.9 ×10⁻⁶ cm/s. In series [1], the pEC50 is 6.52. Moreover, the pIC50 on IRAK4 is 8.30.
`CC(C)Nc1cc(-n2ncc3cc(C#N)cnc32)ncc1-c1cc(C2COC(C)(C)CN2)no1` (centres unmarked) [Example 423, 1-(5-(3-(6,6-dimethylmorpholin-3-yl)isoxazol-5-yl)-4-(isopropylamino)pyridin-2-yl)-1H-pyrazolo[3,4-b]pyridine-5-carbonitrile]: in series [2], the Papp at 2 h, 3 µM was 39.4 ×10⁻⁶ cm/s. Besides, the pEC50 in series [1] (Homo sapiens) is 6.80. Also, the pIC50 on IRAK4 is 8.70.
In series [2], `CC(C)Nc1cc(-n2ncc3cc(C#N)cnc32)ncc1-c1cc([C@@H]2C[C@H](O)CCN2)no1` [Example 424, 1-(5-(3-((2S,4R)-4-hydroxypiperidin-2-yl)isoxazol-5-yl)-4-(isopropylamino)pyridin-2-yl)-1H-pyrazolo[3,4-b]pyridine-5-carbonitrile] gave a Papp at 2 h, 3 µM below 1.5 ×10⁻⁶ cm/s. The compound further had a pEC50 in series [1] (Homo sapiens) of 6.74. Besides, the pIC50 on IRAK4 is 8.00.
In turn, `CC(C)Nc1cc(-n2ncc3cc(C#N)cnc32)ncc1-c1cc([C@H]2C[C@@H](O)CCN2)no1` [Example 425, 1-(5-(3-((2R,4S)-4-hydroxypiperidin-2-yl)isoxazol-5-yl)-4-(isopropylamino)pyridin-2-yl)-1H-pyrazolo[3,4-b]pyridine-5-carbonitrile] yielded a Papp at 2 h, 3 µM in series [2] below 1.5 ×10⁻⁶ cm/s. The pEC50 in series [1] (Homo sapiens) is 6.85. Moreover, the pIC50 at IRAK4 is 8.05.
In the same order, the values of `CC(=O)N1CC[C@H]1c1cc(-c2cnc(-n3ncc4cc(C#N)cnc43)cc2NC(C)C)on1` [Example 427, (S)-1-(5-(3-(1-acetylazetidin-2-yl)isoxazol-5-yl)-4-(isopropylamino)pyridin-2-yl)-1H-pyrazolo[3,4-b]pyridine-5-carbonitrile] are 8 ×10⁻⁶ cm/s, 6.60 and 7.82.
On the same counts, the results for `CC(C)Nc1cc(-n2ncc3cc(C#N)cnc32)ncc1-c1cc([C@@H]2COCCN2)on1` [Example 428, (S)-1-(4-(isopropylamino)-5-(5-(morpholin-3-yl)isoxazol-3-yl)pyridin-2-yl)-1H-pyrazolo[3,4-b]pyridine-5-carbonitrile] are 26.3 ×10⁻⁶ cm/s, 6.34 and 8.40.
In the same order, the values of `CCN1CCOC[C@H]1c1cc(-c2cnc(-n3ncc4cc(C#N)cnc43)cc2NC(C)C)no1` [Example 431, (S)-1-(5-(5-(4-ethylmorpholin-3-yl)isoxazol-3-yl)-4-(isopropylamino)pyridin-2-yl)-1H-pyrazolo[3,4-b]pyridine-5-carbonitrile] are 21.8 ×10⁻⁶ cm/s, 6.36 and 8.70.
Compound `CC(C)Nc1cc(-n2ncc3cc(C#N)cnc32)ncc1-c1nnc(C(=O)N2CCOCC2)o1` [Example 433, 1-(4-(isopropylamino)-5-(5-(morpholine-4-carbonyl)-1,3,4-oxadiazol-2-yl)pyridin-2-yl)-1H-pyrazolo[3,4-b]pyridine-5-carbonitrile] yielded a Papp at 2 h, 3 µM in series [2] of 1.7 ×10⁻⁶ cm/s. In series [1] (Homo sapiens), the negative logarithm of the EC50 (pEC50) was 6.70. For the same compound, at IRAK4, the pIC50 was 7.96.
`CC(C)Nc1cc(-n2ncc3cc(C#N)cnc32)ncc1-c1cc(CC(C)(C)O)on1` [Example 439, 1-(5-(5-(2-hydroxy-2-methylpropyl)isoxazol-3-yl)-4-(isopropylamino)pyridin-2-yl)-1H-pyrazolo[3,4-b]pyridine-5-carbonitrile]: in the series on Caco-2 cells, the “Caco-2 Permeability” value is 31 ×10⁻⁶ cm/s. In series [1], this compound showed a pEC50 of 6.60.
In turn, `CCNc1cc(-n2ncc3cc(C#N)cnc32)ncc1C1=NOC(CCC(C)(C)O)C1` (centres unmarked) [Example 440, 1-(4-(ethylamino)-5-(5-(3-hydroxy-3-methylbutyl)-4,5-dihydroisoxazol-3-yl)pyridin-2-yl)-1H-pyrazolo[3,4-b]pyridine-5-carbonitrile] gave a Papp at 2 h, 3 µM in series [2] of 31.6 ×10⁻⁶ cm/s. Also, in series [1] (Homo sapiens), the pEC50 is 6.55. The pIC50 at IRAK4 is 8.40.
`CCNc1cc(-n2ncc3cc(C#N)cnc32)ncc1C1=NOC(CCC(C)(C)O)C1` (centres unmarked) [Example 441, 1-(4-(ethylamino)-5-(5-(3-hydroxy-3-methylbutyl)-4,5-dihydroisoxazol-3-yl)pyridin-2-yl)-1H-pyrazolo[3,4-b]pyridine-5-carbonitrile]: in the series with Caco-2 cells, the “Caco-2 Permeability” value was determined as 31.7 ×10⁻⁶ cm/s. The compound also had a pEC50 in series [1] of 6.59. The pIC50 at IRAK4 was 8.70.
Compound `CC(C)(O)CCC1CC(c2cnc(-n3ncc4cc(C#N)cnc43)cc2NCC(F)F)=NO1` (centres unmarked) [Example 443, 1-(4-((2,2-difluoroethyl)amino)-5-(5-(3-hydroxy-3-methylbutyl)-4,5-dihydroisoxazol-3-yl)pyridin-2-yl)-1H-pyrazolo[3,4-b]pyridine-5-carbonitrile] returned a Papp at 2 h, 3 µM in series [2] of 14.1 ×10⁻⁶ cm/s. Further, the pEC50 in series [1] was 6.41. Besides, the pIC50 on IRAK4 was 8.70.
